The text below walks through data of patent publication US10612094B2, “Genetic markers for engraftment of human cardiac ventricular progenitor cells” (Procella Therapeutics AB, priority 2016, dated 2020).

The test deals with human ventricular muscle organ strips. In words: Force generation of muscle strips from HVP-derived human muscle organ in response to electric stimulation. To be noted: muscle strips of 5-month graft, p<0.05 compared to control. The source says: One of the critical limitations for the utility of hPSCs for studies of human cardiac biology and disease is their lack of maturity and persistence of expression of fetal isoforms. […] Animals were sacrificed and the engrafted kidneys were removed for further analysis. The 5-month human graft was a hemisphere structure with the radius of 0.4 cm (diameter of 0.8 cm). […] In addition, muscle trips taken from our mature human muscle organ generated forces (0.36±0.04 mN) in response to electric stimulation and increased their force generation after treatment with a β-adrenergic agonist isoprenaline (0.51±0.02 mN, p<0.05 compared to control). Taken together, these studies indicate that the HVPs are capable of generating a fully functional, mature human ventricular muscle organ in vivo via a cell autonomous pathway, i.e., without the addition of other cells, genes, matrix proteins, or biomaterials.

As for `CC(C)NCC(O)c1ccc(O)c(O)c1` (stereo not shown) [isoprenaline], the “force generation after treatment with β-adrenergic agonist” value is 0.51±0.02 mN.
